Biological target: human APJ receptor (Homo sapiens (Human), UniProt P35414)
Test: biochemical
Assay type: biochemical
Details: read-out: Activity hAPJ SPA EC50 IP
Method in brief: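 Agonist-stimulated [35S]GTPγS (0.2 nM) binding was read by SPA after 90 min at room temperature. Buffer: 20 mM HEPES pH 7.5 with 5 mM MgCl2, 200 mM NaCl, 3 μM GDP, 0.1% BSA; membranes were from a stable human APJ CHO line. EC50 values are averages of independent runs, fitted by non-linear regression.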

human APJ receptor, sequence (P35414 whole entry): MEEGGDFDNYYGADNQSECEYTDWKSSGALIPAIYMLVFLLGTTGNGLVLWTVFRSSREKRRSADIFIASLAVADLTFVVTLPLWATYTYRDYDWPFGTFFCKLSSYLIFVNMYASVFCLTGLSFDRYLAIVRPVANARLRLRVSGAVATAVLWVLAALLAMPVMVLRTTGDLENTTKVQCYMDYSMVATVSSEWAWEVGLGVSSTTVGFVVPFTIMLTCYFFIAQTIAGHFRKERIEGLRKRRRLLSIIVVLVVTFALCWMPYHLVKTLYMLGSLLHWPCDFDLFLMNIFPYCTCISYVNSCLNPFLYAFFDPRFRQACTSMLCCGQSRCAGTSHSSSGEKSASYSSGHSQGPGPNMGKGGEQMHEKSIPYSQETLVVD

Structure (SMILES)	EC50
COc1cccc(OC)c1-n1c(NS(=O)(=O)[C@@H](C)[C@H](C)c2ncc(F)cn2)nnc1-c1cccc(OCC(C)(C)O)n1 [Example 192.0, (2S,3R)-N-(4-(2,6-dimethoxyphenyl)-5-(6-(2-hydroxy-2-methylpropoxy)pyridin-2-yl)-4H-1,2,4-triazol-3-yl)-3-(5-fluoropyrimidin-2-yl)butane-2-sulfonamide]	260 nM
COc1ncnc(OC)c1-n1c(NS(=O)(=O)[C@@H](C)[C@H](C)c2ncc(C)cn2)nnc1-c1ccccn1 [Example 776.0, (2S,3R)-N-(4-(4,6-dimethoxy-5-pyrimidinyl)-5-(2-pyridinyl)-4H-1,2,4-triazol-3-yl)-3-(5-methyl-2-pyrimidinyl)-2-butanesulfonamide]	3.9 nM
Cc1cnc([C@@H](C)[C@H](C)S(=O)(=O)Nc2nnc(-c3cncc(C)c3)n2-c2c(F)cccc2F)nc1 (single isomer, unassigned) [Example 826.0]	1.7 nM
CCO[C@@H](c1ncc(Cl)cn1)[C@H](C)S(=O)(=O)Nc1nnc(-c2cncc(C)c2)n1-c1c(OC)cccc1OC (single isomer, unassigned) [Example 611.0]	0.19 nM
COc1cccc(-c2nnc(NS(=O)(=O)[C@@H](C)[C@H](O)C(C)(C)C)n2-c2c(OC)cccc2OC)n1 (single isomer, unassigned) [Example 434.0, (2S,3R)—N-(4-(2,6-dimethoxyphenyl)-5-(6-methoxy-2-pyridinyl)-4H-1,2,4-triazol-3-yl)-3-hydroxy-4,4-dimethyl-2-pentanesulfonamide or (2R,3S)—N-(4-(2,6-dimethoxyphenyl)-5-(6-methoxy-2-pyridinyl)-4H-1,2,4-triazol-3-yl)-3-hydroxy-4,4-dimethyl-2-pentanesulfonamide]	120 nM
COc1cccc(OC)c1-n1c(NS(=O)(=O)[C@@H](C)[C@H](O)c2nc(C)c(C)s2)nnc1-c1cncc(C)c1 (single isomer, unassigned) [Example 295.0]	98 nM
COc1cccc(OC)c1-n1c(NS(=O)(=O)[C@H](C)[C@H](OC(C)C)c2cn3ccccc3n2)nnc1-c1cccnc1 (stereo in doubt) [Example 827.0, (1R,2R)-N-(4-(2,6-dimethoxyphenyl)-5-(3-pyridinyl)-4H-1,2,4-triazol-3-yl)-1-imidazo[1,2-a]pyridin-2-yl-1-(1-methylethoxy)-2-propanesulfonamide, (1S,2S)-N-(4-(2,6-dimethoxyphenyl)-5-(3-pyridinyl)-4H-1,2,4-triazol-3-yl)-1-imidazo[1,2-a]pyridin-2-yl-1-(1-methylethoxy)-2-propanesulfonamide]	10 nM
CCO[C@@H](c1ncc(Cl)cn1)[C@H](C)S(=O)(=O)Nc1nnc(-c2cncc(C)c2)n1-c1c(OC)cccc1OC (single isomer, unassigned) [Example 609.0]	9.4 nM
COc1cccc(-c2nnc(NS(=O)(=O)[C@@H](C)[C@H](OC)c3ncc(C)cn3)n2-c2cccc(Cl)c2)n1 [Example 66.0, (1R,2S)-N-(4-(3-chlorophenyl)-5-(6-methoxy-2-pyridinyl)-4H-1,2,4-triazol-3-yl)-1-methoxy-1-(5-methyl-2-pyrimidinyl)-2-propanesulfonamide]	24 nM
COc1cccc(-c2nnc(NS(=O)(=O)C[C@H](O)c3ccc(C#N)cn3)n2-c2c(OC)cccc2OC)n1 (single isomer, unassigned) [Example 332.0, (R)-2-(5-cyanopyridin-2-yl)-N-(4-(2,6-dimethoxyphenyl)-5-(6-methoxypyridin-2-yl)-4H-1,2,4-triazol-3-yl)-2-hydroxyethanesulfonamide or (S)-2-(5-cyanopyridin-2-yl)-N-(4-(2,6-dimethoxyphenyl)-5-(6-methoxypyridin-2-yl)-4H-1,2,4-triazol-3-yl)-2-hydroxyethanesulfonamide]	0.56 nM
COc1cccc(-c2nnc(NS(=O)(=O)[C@@H](C)[C@H](OC)c3ncc(C)cn3)n2-c2cccc(C(C)=O)c2)n1 [Example 72.0, (1R,2S)-N-(4-(3-acetylphenyl)-5-(6-methoxy-2-pyridinyl)-4H-1,2,4-triazol-3-yl)-1-methoxy-1-(5-methyl-2-pyrimidinyl)-2-propanesulfonamide]	9.1 nM
COc1cccc(-c2nnc(NS(=O)(=O)[C@@H](C)[C@H](OC)c3ncc(C)cn3)n2-c2ccc(F)cc2)n1 [Example 65.0, (1R,2S)-N-(4-(4-fluorophenyl)-5-(6-methoxy-2-pyridinyl)-4H-1,2,4-triazol-3-yl)-1-methoxy-1-(5-methyl-2-pyrimidinyl)-2-propanesulfonamide]	180 nM
COc1cccc(OC)c1-n1c(NS(=O)(=O)[C@@H](C)[C@@H](O)c2ccc(C#N)cc2F)nnc1-c1cncc(C)c1 (single isomer, unassigned) [Example 344.0]	0.6 nM
COc1cccc(OC)c1-n1c(NS(=O)(=O)[C@@H]2C[C@@H](OC)CN(c3ncc(F)cn3)C2)nnc1-c1cccnc1 (stereo in doubt) [Example 816.0, (3S,5S)-N-(4-(2,6-dimethoxyphenyl)-5-(3-pyridinyl)-4H-1,2,4-triazol-3-yl)-1-(5-fluoro-2-pyrimidinyl)-5-methoxy-3-piperidinesulfonamide, (3R,5R)-N-(4-(2,6-dimethoxyphenyl)-5-(3-pyridinyl)-4H-1,2,4-triazol-3-yl)-1-(5-fluoro-2-pyrimidinyl)-5-methoxy-3-piperidinesulfonamide]	18 nM
COc1cnc([C@@H](C)[C@H](C)S(=O)(=O)Nc2nnc(-c3cncc(C)c3)n2-c2c(OC)cccc2OC)nc1 [Example 682.0, (2S,3R)-N-(4-(2,6-dimethoxyphenyl)-5-(5-methyl-3-pyridinyl)-4H-1,2,4-triazol-3-yl)-3-(5-methoxy-2-pyrimidinyl)-2-butanesulfonamide 2,2,2-trifluoroacetate]	0.2 nM
COc1cccc(OC)c1-n1c(NS(=O)(=O)[C@@H](C)[C@H](O)c2ncc(F)cn2)nnc1-c1cccnc1 [Example 82.0, (1R,2S)-N-(4-(2,6-dimethoxyphenyl)-5-(3-pyridinyl)-4H-1,2,4-triazol-3-yl)-1-(5-fluoro-2-pyrimidinyl)-1-hydroxy-2-propanesulfonamide]	2.8 nM
COc1cccc(-c2nnc(NS(=O)(=O)[C@H](C)Cc3ncc(F)cn3)n2-c2ccccc2OC)n1 (mixture of isomers) [Example 31.0, (2R)-1-(5-fluoropyrimidin-2-yl)-N-(4-(2-methoxyphenyl)-5-(6-methoxypyridin-2-yl)-4H-1,2,4-triazol-3-yl)propane-2-sulfonamide and (2S)-1-(5-fluoropyrimidin-2-yl)-N-(4-(2-methoxyphenyl)-5-(6-methoxypyridin-2-yl)-4H-1,2,4-triazol-3-yl)propane-2-sulfonamide]	2.4 nM
COc1cccc(-c2nnc(NS(=O)(=O)[C@@H](C)[C@H](OC)c3ncc(C)cn3)n2-c2cc(C(F)(F)F)cc(C(F)(F)F)c2)n1 [Example 39.0, (1R,2S)-N-(4-(3,5-bis(trifluoromethyl)phenyl)-5-(6-methoxypyridin-2-yl)-4H-1,2,4-triazol-3-yl)-1-methoxy-1-(5-methylpyrimidin-2-yl)propane-2-sulfonamide]	540 nM
COc1cccc(-c2nnc(NS(=O)(=O)[C@@H](C)[C@H](OC)c3ncc(C)cn3)n2-c2cccc(C)c2)n1 [Example 62.0, (1R,2S)-1-methoxy-N-(5-(6-methoxy-2-pyridinyl)-4-(3-methylphenyl)-4H-1,2,4-triazol-3-yl)-1-(5-methyl-2-pyrimidinyl)-2-propanesulfonamide]	6 nM
